Format in all cases: cell-based
The subject of one experiment is Ba/F3 parental cells. The experiment in a line: Cell viability (MTS) assay, Ba/F3 parental. The note with it: Ba/F3 parental cells; read-out: IC50 (insensitive/resistant up to stated concentration). As for the experimental part: (§1) The parental Ba/F3 cell line was cultured in RPMI 1640 medium with 10% FBS, L-glutamine, penicillin/streptomycin and 15% WEHI-conditioned media. Ba/F3 cell lines were maintained at densities of 0.5×10^6 to 1.5×10^6 per ml of media. FIG-ROS and SLC-ROS Ba/F3 lines were created by infecting the parental Ba/F3 with retrovirus expressing either human FIG-ROS-S (indicated FIG-ROS herein) or SLC-ROS-S (indicated SLC-ROS herein). Stable transfectant lines were sorted for GFP expression on a FACS Aria® flow cytometer. Cells were counted daily using Guava ViaCount® reagent and Guava Personal Cell Analysis® flow cytometer. […] Early passage NIH3T3 cells were infected with retrovirus expressing either FIG-ROS or SLC-ROS and sorted for GFP expression as described above for Ba/F3 cells. HCC78 cells were cultured in RPMI 1640 medium with 10% FBS, L-glutamine, and penicillin/streptomycin. This media is referred to as RPMI-10% FBS herein.
(§2) […]. The Ba/F3 parental line was also tested. (O'Dwyer M E and Druker B J, Lancet Oncology 1, 207-211 (2000); Walters D K et al, Cancer Cell 10, 65-75 (2006); and Heukamp L C et al, Science Translational Medicine 4, 141ra191 (2012); […].

A further experiment has as its target Ba/F3 Bcr-Abl cells (Homo sapiens, UniProt P00519). The experiment in a line: Cell viability (MTS) assay, Ba/F3 Bcr-Abl. To be noted: read-out: IC50 (insensitive/resistant up to stated concentration).
The target in another experiment is Ba/F3 ALK F1174L cells (Homo sapiens, UniProt Q9UM73, F1174L, cells depend on it). The experiment in a line: Cell viability (MTS) assay, Ba/F3 ALK F1174L. To be noted: 72 hours, read-out: IC50 (the source's name).
Another experiment addresses Ba/F3 JAK3 A572V cells (Homo sapiens, UniProt P52333, A572V, cells depend on it). Kind of experiment: Cell viability (MTS) assay, Ba/F3 JAK3 A572V. To be noted: read-out: IC50 (insensitive/resistant up to stated concentration).
Another experiment addresses T1, Ba/F3 FIG-ROS cells (Homo sapiens, UniProt P08922).
T1 construct: fused on or other part: GFP is co-expressed from an IRES in pMIG and is not fused; Q9HD26 (Golgi-associated PDZ and coiled-coil motif-containing protein)
The experiment in a line: Cell viability (MTS) assay, Ba/F3 FIG-ROS. The note with it: read-out: IC50 (50% growth inhibitory concentration); Ba/F3 FIG-ROS cells, 72 hours, MTS.
Text: as §1, with “Ba/F3” for “The parental Ba/F3 cell line was cultured in RPMI 1640 medium with 10% FBS, L-glutamine, penicillin/streptomycin and 15% WEHI-conditioned media. Ba/F3”, “HCC78 cells were cultured in RPMI 1640 medium with 10% FBS, L-glutamine, and penicillin/streptomycin.” left out
The FIG-ROS-S (FIG-ROS) fusion protein has been reported in non-small cell lung cancers (NSCLC), glioblastomas, and cholangiocarcinomas.

In the next experiment the target is T2, Ba/F3 SLC-ROS cells (Homo sapiens, UniProt P08922).
T2 construct: SLC-ROS-S (SLC-ROS) was cloned from cDNA made from HCC78 cells; fused on or other part: GFP is co-expressed from an IRES in pMIG and is not fused; O95436 (Sodium-dependent phosphate transport protein 2B)
T2 sequence (P08922 whole entry, change not shown, the tested form may be a part): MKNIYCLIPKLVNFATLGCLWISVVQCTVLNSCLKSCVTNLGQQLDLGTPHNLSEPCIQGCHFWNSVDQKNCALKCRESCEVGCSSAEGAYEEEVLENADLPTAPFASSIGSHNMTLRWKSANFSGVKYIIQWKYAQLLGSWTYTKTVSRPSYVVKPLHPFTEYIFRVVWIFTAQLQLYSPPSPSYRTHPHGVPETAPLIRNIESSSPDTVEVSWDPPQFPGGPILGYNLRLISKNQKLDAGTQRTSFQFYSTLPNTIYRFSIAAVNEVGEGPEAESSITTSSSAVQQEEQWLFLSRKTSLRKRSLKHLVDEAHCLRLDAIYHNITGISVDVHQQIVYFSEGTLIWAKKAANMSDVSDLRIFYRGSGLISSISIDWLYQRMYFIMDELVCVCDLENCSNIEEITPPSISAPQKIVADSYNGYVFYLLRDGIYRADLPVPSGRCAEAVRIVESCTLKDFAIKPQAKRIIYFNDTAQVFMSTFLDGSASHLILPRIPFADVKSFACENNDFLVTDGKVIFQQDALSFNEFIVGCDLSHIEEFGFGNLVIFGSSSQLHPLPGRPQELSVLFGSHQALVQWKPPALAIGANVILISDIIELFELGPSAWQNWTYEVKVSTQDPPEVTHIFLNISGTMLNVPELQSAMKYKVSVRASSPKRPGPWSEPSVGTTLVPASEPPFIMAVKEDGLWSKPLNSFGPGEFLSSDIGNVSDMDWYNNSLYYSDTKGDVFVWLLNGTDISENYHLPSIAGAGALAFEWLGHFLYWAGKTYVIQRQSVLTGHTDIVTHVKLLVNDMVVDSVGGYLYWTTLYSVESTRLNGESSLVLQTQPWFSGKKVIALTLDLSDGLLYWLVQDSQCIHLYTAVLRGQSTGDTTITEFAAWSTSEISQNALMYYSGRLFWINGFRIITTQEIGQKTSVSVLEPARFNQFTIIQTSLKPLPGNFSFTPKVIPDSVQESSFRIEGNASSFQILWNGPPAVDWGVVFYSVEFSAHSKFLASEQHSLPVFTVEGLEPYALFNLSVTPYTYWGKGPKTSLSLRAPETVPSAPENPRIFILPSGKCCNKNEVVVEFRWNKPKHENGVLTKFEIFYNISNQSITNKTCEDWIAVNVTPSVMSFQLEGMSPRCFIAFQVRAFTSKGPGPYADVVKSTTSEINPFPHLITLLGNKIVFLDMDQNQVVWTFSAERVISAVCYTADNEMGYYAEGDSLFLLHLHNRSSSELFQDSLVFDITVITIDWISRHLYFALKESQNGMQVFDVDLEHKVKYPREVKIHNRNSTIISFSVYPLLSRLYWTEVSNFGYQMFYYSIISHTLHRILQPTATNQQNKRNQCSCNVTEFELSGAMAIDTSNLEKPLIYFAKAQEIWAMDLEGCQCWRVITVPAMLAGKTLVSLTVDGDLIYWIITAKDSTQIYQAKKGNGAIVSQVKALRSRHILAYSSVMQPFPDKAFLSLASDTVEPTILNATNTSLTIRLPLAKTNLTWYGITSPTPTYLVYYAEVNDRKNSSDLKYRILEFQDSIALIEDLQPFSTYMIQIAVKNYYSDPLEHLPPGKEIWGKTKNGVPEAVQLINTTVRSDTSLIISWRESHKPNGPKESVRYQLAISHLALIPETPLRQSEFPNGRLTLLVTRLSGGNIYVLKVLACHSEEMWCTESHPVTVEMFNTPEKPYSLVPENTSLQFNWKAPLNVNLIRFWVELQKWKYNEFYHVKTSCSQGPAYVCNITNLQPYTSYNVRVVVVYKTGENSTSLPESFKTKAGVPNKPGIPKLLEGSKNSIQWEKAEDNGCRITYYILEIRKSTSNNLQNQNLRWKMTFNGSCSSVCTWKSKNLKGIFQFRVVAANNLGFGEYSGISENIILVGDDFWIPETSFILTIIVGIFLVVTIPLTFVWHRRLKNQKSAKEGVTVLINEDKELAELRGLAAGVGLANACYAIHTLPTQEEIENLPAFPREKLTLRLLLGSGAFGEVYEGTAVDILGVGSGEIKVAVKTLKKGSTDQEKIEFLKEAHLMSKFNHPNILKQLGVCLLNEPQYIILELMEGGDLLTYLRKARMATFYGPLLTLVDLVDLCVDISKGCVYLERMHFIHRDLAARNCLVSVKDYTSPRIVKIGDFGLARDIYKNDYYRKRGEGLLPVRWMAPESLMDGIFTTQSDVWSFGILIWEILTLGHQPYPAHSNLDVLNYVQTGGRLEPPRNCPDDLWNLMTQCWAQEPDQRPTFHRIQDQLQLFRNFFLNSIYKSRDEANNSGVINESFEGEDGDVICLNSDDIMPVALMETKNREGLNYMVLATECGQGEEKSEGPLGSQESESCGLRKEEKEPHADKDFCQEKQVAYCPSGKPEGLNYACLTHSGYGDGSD
Kind of experiment: Cell viability (MTS) assay, Ba/F3 SLC-ROS. To be noted: 72 hours, read-out: IC50 (the source's name). As to the method:
as §1, §2

Each structure is given as a SMILES string.

Chain of Ba/F3 Bcr-Abl cells (P00519 whole entry, stated change not applied): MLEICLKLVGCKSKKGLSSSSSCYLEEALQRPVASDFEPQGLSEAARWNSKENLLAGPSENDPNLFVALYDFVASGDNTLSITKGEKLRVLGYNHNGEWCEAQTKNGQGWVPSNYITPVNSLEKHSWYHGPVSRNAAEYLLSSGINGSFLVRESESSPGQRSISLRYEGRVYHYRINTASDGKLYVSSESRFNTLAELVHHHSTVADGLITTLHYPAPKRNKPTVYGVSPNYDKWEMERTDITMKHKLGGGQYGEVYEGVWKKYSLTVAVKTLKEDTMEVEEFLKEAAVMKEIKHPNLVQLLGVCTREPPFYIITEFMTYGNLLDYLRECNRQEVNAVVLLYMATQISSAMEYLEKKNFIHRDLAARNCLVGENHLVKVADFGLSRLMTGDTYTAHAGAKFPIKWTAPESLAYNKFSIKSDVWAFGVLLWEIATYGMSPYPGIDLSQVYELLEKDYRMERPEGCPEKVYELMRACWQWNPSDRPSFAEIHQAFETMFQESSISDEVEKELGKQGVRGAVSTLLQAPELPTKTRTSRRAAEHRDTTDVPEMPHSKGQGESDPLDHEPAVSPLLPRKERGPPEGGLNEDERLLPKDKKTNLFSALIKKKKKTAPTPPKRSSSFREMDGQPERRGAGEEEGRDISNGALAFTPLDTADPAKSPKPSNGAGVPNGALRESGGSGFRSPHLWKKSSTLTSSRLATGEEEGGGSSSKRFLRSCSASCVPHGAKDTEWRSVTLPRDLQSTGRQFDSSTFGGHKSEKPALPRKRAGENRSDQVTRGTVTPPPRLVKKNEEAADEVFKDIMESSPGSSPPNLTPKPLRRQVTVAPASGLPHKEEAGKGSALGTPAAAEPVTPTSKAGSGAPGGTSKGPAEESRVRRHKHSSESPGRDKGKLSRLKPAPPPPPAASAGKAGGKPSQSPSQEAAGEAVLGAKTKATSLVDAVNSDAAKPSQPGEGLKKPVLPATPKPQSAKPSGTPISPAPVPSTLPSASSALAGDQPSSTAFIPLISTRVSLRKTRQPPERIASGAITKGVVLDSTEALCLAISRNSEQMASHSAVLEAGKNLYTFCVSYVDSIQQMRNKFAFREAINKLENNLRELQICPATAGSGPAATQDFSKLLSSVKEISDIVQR
T1 sequence (P08922 whole entry, change not shown, the tested form may be a part): as the sequence (P08922 whole entry, change not shown, the tested form may be a part) above
Chain of Ba/F3 JAK3 A572V cells (P52333 whole entry A572V): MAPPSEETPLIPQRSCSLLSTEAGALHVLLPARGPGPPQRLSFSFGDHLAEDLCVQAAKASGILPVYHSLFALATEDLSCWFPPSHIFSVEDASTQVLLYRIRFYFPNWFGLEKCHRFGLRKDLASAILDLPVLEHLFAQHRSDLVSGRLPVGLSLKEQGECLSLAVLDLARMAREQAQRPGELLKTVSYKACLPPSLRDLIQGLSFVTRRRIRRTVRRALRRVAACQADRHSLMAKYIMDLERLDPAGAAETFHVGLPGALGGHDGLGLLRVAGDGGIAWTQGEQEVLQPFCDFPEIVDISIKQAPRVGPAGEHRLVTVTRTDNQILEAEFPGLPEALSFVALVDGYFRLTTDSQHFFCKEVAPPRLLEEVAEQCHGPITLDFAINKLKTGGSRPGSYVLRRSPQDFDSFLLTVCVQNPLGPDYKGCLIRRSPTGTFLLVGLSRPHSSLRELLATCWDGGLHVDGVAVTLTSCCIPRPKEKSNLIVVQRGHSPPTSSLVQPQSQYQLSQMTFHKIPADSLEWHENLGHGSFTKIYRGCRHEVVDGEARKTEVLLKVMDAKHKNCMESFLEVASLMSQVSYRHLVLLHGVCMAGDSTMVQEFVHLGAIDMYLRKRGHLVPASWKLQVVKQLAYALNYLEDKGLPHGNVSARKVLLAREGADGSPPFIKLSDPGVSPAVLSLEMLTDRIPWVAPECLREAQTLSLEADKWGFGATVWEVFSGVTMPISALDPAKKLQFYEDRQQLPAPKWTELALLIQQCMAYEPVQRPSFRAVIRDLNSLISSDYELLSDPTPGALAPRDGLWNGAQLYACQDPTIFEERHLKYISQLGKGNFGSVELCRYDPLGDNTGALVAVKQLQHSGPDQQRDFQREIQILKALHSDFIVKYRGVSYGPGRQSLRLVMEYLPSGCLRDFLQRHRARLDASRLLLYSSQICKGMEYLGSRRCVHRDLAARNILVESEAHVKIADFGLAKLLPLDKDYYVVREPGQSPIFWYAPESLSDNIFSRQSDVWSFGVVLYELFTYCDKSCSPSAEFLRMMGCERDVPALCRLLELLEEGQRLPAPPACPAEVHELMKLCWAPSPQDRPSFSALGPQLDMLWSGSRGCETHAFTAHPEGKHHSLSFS

Regarding `CNC(=O)c1c(F)cccc1Nc1nc(Nc2cc3c(cc2OC)CCN3C(=O)CN(C)C)nc2[nH]ccc12` [GSK1838705A], in the experiment on Ba/F3 parental cells, the IC50 is more than 10 µM. For the same molecule, the GI50 is more than 10 µM on Ba/F3 Bcr-Abl cells; 10 nM at Ba/F3 ALK F1174L cells; more than 10 µM at Ba/F3 JAK3 A572V cells; 250 nM at Ba/F3 FIG-ROS cells; 1000 nM at Ba/F3 SLC-ROS cells.
